Usually IC50 stands for the concentration needed to halve the response being measured.

Read-outs that look alike come from different tables or passages of the source.

Experiment [1] addresses PI3K α (Homo sapiens, UniProt P42336). In words: PI 3-Kinase HTRF inhibition assay, PI3K α. It counts as biochemical. As to conditions: in vitro. The procedure: (§1) Commercial kits or systems for assaying PI3-K activities are available. The commercially available kits or systems can be used to screen for inhibitors and/or agonists of PI3-Ks including but not limited to PI 3-Kinase α, β, δ, and γ. Anr exemplary system is PI 3-Kinase (human) HTRF™ Assay from Upstate. […] Briefly, the assay is a time resolved FRET assay that indirectly measures PIP3 product formed by the activity of a PI3-K. The kinase reaction is performed in a microtitre plate (e.g., a 384 well microtitre plate). The total reaction volume is approximately 20 ul per well. In the first step, each well receives 2 ul of test compound in 20% dimethylsulphoxide resulting in a 2% DMSO final concentration. Next, approximately 14.5 ul of a kinase/PIP2 mixture (diluted in 1× reaction buffer) is added per well for a final concentration of 0.25-0.3 ug/ml kinase and 10 μM PIP2. The plate is sealed and incubated for 15 minutes at room temperature. To start the reaction, 3.5 ul of ATP (diluted in 1× reaction buffer) is added per well for a final concentration of 10 μM ATP. The plate is sealed and incubated for 1 hour at room temperature. The reaction is stopped by adding 5 ul of Stop Solution per well and then 5 ul of Detection Mix is added per well. The plate is sealed, incubated for 1 hour at room temperature, and then read on an appropriate plate reader. Data is analyzed and IC50s are generated using GraphPad Prism 5. For PI3K α, β, δ, and γ, the nM conentration of inhibitor to reach IC50 is provided. […] Similar assays, and others known in the art, can be used to measure the percent inhibition of other kinases, including but not limited to PI3K class II kinases, phosphoinositide 4 kinases (PI4K), and phosphoinositide 5 kinases (PI5K).
In general terms: TR-FRET usually uses a lanthanide donor and a delayed reading to cut background.

In experiment [2] the target is PI3K β (Homo sapiens, UniProt P42338). Put plainly: PI 3-Kinase HTRF inhibition assay, PI3K β. It counts as biochemical. The procedure:
as §1

The target in experiment [3] is PI3K δ (Homo sapiens, UniProt O00329). In words: PI 3-Kinase HTRF inhibition assay, PI3K δ. As to conditions: in vitro. Type of experiment: biochemical. The procedure: as §1
PI3K δ, sequence (O00329 whole entry): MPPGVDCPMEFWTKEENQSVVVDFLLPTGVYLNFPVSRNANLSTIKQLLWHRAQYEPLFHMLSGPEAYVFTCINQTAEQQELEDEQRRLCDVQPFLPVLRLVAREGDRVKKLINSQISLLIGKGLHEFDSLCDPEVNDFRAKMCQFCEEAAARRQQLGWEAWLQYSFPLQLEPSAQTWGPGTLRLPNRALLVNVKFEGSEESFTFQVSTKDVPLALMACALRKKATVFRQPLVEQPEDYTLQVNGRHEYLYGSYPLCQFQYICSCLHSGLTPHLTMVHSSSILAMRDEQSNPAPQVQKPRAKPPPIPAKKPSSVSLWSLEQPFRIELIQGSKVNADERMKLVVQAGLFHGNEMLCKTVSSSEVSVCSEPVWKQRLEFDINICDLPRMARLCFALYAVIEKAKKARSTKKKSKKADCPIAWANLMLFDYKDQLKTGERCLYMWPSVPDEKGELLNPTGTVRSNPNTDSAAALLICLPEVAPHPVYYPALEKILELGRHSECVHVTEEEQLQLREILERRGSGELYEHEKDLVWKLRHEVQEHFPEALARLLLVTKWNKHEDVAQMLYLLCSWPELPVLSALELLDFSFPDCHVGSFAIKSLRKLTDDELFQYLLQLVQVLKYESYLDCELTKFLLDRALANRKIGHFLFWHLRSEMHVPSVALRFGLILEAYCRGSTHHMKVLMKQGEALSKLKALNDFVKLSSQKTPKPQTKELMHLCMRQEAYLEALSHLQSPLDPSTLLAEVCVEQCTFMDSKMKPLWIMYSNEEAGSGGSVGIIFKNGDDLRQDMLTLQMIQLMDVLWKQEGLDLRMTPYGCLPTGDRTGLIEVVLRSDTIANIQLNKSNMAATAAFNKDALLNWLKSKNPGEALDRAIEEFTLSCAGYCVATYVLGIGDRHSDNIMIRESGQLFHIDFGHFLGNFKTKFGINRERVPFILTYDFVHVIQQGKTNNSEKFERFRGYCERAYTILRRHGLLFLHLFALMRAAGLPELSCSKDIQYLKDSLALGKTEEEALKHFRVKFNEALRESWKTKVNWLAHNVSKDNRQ
PI3K δ, sequence (P27986 whole entry partner): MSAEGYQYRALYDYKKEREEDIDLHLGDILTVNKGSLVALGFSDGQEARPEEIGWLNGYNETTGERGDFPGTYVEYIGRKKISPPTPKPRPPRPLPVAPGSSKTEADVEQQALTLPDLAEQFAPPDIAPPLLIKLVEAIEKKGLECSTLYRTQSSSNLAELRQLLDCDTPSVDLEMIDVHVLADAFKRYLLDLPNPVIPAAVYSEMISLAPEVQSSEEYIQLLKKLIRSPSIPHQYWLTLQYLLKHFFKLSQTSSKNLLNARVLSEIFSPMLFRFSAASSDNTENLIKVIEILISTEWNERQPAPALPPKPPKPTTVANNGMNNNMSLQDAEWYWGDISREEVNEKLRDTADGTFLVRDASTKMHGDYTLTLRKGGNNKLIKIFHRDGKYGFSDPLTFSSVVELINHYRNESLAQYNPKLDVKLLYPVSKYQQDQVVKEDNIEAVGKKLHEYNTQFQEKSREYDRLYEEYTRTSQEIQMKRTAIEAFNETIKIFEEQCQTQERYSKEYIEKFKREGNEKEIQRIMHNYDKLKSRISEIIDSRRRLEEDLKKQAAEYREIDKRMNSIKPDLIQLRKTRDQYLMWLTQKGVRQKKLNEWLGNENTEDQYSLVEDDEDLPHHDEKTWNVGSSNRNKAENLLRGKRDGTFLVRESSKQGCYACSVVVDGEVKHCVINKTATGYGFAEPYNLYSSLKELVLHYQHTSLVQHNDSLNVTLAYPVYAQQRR
Experiment [4] addresses PI3K γ (Homo sapiens, UniProt P48736). In words: PI 3-Kinase HTRF inhibition assay, PI3K γ. It counts as biochemical. As to conditions: in vitro.
Experiment [5] concerns MDA-MB-361. Put plainly: MDA-MB-361 proliferation. Type of experiment: cell-based. As to conditions: Homo sapiens; in vitro IC50, MDA-MB-361 cells. The protocol:
The ability of one or more subject compounds to inhibit tumor cell line proliferation is determined according to standard procedures known in the art. For instance, an in vitro cellular proliferation assay can be performed to measure the metabolic activity of live cells. The assay is performed in a 96 well microtiter plate using Alamar Blue reduction. Human tumor cell lines are obtained from ATCC (e.g., MCF7, U-87 MG, MDA-MB-468, PC-3), grown to confluency in T75 flasks, trypsinized with 0.25% trypsin, washed one time with Tumor Cell Media (DMEM+10% FBS), and plated in 90 ul at 5,000 cells/well in Tumor Cell Media. A compound disclosed herein is diluted in Tumor Cell Media and added in a 10 ul volume. Plates are incubated for 72 hours at 37 C and 5% CO2. A volume of 10 uL of Alamar Blue reagent is added to each well and plates are incubated for 3 hours at 37 C and 5% CO2. Alamar Blue fluoresce is read at 560 Ex/590 Em, and IC50 values are calculated using GraphPad Prism 5.
Cells comprising one or more mutations in PI3Kα, including but not limited to breast cancer cells (e.g., MDA-MB-361 and T47D), and cells comprising one or more mutations in PTEN including but not limited to prostate cancer cells (e.g., PC3), are typically grown in cell growth media such as DMEM supplemented with fetal bovine serum and/or antibiotics, and grown to confluency. Cells are then treated with various concentrations of test compound for about 2 hours and subsequently lysed in cell lysis buffer. Lysates are subjected to SDS-PAGE followed by Western blot analysis to detect downstream signaling markers, including but not limited to pAKT(S473), pAKT(T308), pS6, and p4E-BP1. Degree of proliferation (and proliferation inhibition) can also be measured for cells at various doses of compound of the present invention.

[6] abbreviates: in vitro, read-out: PI3K β IC50.

PI3K β, sequence (P42338 whole entry): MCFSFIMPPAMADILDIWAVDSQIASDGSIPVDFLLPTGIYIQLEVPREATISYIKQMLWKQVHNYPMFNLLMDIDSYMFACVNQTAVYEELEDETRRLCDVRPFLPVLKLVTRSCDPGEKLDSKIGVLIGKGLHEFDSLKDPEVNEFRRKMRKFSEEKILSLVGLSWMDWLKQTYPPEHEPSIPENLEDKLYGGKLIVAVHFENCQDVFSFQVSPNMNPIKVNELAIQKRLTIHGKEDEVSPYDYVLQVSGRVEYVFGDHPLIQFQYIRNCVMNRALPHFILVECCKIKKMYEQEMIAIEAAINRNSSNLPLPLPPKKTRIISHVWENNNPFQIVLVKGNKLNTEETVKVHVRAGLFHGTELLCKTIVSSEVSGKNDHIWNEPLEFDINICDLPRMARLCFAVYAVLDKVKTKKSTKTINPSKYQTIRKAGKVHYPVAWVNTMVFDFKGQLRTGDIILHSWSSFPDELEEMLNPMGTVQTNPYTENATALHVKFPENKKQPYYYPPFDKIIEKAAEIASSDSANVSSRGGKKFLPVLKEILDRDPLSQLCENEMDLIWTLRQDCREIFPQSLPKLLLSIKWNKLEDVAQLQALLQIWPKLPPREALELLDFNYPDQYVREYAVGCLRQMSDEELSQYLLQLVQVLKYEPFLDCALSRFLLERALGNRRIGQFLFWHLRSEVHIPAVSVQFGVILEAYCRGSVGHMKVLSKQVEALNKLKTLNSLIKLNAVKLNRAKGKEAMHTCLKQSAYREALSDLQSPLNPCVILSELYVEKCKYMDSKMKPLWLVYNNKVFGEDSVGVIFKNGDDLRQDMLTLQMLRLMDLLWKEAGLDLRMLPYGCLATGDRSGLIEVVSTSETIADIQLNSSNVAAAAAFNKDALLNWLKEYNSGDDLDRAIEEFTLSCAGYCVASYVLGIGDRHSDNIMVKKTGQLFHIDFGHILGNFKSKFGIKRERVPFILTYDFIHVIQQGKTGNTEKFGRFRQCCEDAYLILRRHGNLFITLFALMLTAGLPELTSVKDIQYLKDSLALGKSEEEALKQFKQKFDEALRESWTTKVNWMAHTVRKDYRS
PI3K β, sequence (P27986 whole entry partner): as the sequence (P27986 whole entry partner) above
PI3K γ, sequence (P48736 whole entry): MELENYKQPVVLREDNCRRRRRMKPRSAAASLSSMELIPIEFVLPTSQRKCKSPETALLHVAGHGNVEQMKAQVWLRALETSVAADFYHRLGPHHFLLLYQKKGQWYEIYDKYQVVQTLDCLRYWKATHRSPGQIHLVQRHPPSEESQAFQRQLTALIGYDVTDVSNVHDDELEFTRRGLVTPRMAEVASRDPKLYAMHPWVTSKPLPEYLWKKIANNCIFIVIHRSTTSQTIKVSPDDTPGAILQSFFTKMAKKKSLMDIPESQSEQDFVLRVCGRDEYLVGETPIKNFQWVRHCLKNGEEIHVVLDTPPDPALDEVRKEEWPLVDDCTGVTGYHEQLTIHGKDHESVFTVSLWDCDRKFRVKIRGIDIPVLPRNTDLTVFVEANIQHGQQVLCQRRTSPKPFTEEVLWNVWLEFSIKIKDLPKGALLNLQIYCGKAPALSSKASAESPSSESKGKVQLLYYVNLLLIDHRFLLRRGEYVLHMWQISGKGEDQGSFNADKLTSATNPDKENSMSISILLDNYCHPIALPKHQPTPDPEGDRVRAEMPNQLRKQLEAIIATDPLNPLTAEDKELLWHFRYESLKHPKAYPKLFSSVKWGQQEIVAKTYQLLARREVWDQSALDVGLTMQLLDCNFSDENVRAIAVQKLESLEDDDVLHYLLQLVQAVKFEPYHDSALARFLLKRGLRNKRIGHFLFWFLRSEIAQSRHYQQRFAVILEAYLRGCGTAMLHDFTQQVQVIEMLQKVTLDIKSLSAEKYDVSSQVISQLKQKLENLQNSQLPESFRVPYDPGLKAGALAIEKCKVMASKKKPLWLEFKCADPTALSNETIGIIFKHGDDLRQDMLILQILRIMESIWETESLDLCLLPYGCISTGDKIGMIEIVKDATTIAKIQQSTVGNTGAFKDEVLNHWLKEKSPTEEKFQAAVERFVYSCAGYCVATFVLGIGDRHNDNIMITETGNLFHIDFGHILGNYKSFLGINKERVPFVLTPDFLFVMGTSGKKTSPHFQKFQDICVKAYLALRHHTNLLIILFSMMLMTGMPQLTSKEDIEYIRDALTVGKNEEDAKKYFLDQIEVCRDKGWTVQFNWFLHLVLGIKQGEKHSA
PI3K α, sequence (P42336 whole entry): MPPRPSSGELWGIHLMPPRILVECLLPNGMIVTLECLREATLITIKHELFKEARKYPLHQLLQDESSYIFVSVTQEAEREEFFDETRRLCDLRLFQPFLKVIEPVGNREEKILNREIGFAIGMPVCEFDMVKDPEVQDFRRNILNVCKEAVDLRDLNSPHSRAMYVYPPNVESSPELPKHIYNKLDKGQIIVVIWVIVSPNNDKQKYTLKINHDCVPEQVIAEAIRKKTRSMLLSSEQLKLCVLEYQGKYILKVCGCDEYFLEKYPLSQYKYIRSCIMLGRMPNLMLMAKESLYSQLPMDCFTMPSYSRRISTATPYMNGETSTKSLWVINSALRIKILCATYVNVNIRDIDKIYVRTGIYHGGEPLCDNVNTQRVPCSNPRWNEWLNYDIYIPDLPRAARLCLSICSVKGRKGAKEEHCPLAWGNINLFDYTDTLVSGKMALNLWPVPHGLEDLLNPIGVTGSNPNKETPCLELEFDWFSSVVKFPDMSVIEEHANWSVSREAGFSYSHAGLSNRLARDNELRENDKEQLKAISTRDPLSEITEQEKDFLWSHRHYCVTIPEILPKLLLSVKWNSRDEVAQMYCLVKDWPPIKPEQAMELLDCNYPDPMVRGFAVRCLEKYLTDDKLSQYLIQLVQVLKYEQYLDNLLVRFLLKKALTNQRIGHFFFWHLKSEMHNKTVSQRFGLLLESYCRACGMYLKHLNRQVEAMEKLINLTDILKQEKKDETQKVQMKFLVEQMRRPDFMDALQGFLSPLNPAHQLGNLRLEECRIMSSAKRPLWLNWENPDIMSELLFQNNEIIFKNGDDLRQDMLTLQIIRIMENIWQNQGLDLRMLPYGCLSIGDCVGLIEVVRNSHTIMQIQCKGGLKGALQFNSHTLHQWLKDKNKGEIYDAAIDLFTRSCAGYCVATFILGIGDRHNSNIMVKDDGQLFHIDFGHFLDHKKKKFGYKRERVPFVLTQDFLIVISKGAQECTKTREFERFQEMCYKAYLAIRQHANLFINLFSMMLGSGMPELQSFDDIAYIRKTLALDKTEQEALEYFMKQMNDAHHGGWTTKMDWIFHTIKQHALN
PI3K α, sequence (P27986 whole entry partner): as the sequence (P27986 whole entry partner) above

Consider `CC1CN(C2CN(c3cnc4ccc(-c5ccc6oc(N)nc6c5)nc4n3)C2)CCO1` (stereo not drawn) [Compound 18], for which the IC50 in experiment [1] was < 1 µM; in experiment [2] (setting [6]), > 10 µM; in experiment [3], > 10 µM.

Turning to `Nc1nc2cc(-c3ccc4ncc(N5C6CCC5COC6)nc4n3)ccc2o1` [Compound 19], the 50% inhibitory concentration (IC50) is < 0.1 µM in experiment [1]; > 10 µM in experiment [2] (setting [6]); > 10 µM in experiment [3]; < 0.1 µM in experiment [4]; < 1 µM in experiment [5].

Take `Nc1nc2cc(-c3ccc4ncc(N5CC(N6CC7CCC(C6)O7)C5)nc4n3)ccc2o1` [Compound 20]: the values for the IC50 in experiment [1], in experiment [2] (setting [6]) and in experiment [3] were < 1 µM, > 10 µM and > 10 µM, respectively.

Regarding `Nc1nc2cc(-c3ccc4ncc(N5C6CCC5COC6)cc4n3)ccc2o1` [Compound 23], the IC50 in experiment [1] is < 0.1 µM; in experiment [3], > 10 µM; in experiment [4], < 0.1 µM.

As for `Nc1nc2cc(-c3ccc4ncc(N5CC6CCC(C5)O6)nc4n3)ccc2o1` [Compound 28], the IC50 in experiment [1] was < 0.1 µM; in experiment [2] (setting [6]), > 10 µM; in experiment [3] it was > 10 µM; in experiment [4], < 1 µM; in experiment [5], < 1 µM.

As to `Nc1nc2cc(-c3ccc4ncc(N5CC(N6C7CCC6COC7)C5)nc4n3)ccc2o1` [Compound 51], the IC50 in experiment [2] (setting [6]), in experiment [3] and in experiment [4] was > 10 µM throughout.

As to `Nc1nc2cc(-c3ccc4ncc(N5CC6CCC(C5)O6)cc4n3)ccc2o1` [Compound 59], the IC50 in experiment [1] was < 0.1 µM; in experiment [2] (setting [6]), > 10 µM; in experiment [3], > 10 µM; in experiment [4], < 0.1 µM; in experiment [5], < 1 µM.

For the molecule `Nc1nc2cc(-c3ccc4ncc(N5CC(N6C7CCC6COC7)C5)cc4n3)ccc2o1` [Compound 67], the IC50 in experiment [1] is < 0.1 µM; in experiment [2] (setting [6]), > 10 µM; in experiment [4], < 1 µM; in experiment [5], < 10 µM.

Take `CN1CC2CN(c3cnc4ccc(-c5ccc6oc(N)nc6c5)nc4c3)CC2C1` (stereo not drawn) [Compound 79]: the IC50 was < 0.1 µM in experiment [1]; < 1 µM in experiment [2] (setting [6]); < 1 µM in experiment [3]; < 1 µM in experiment [4]; < 10 µM in experiment [5].

With `Nc1nc2cc(-c3cnc4ccc(N5C6CCC5COC6)nc4c3)ccc2o1` [Compound 81], the half-maximal inhibitory concentration (IC50) in experiment [2] and in experiment [3] was > 10 µM throughout.

Take `CN1CCN(C2CN(c3cnc4ccc(-c5ccc6oc(N)nc6c5)nc4c3)C2)CC1(C)C` [Compound 83]: the IC50 is < 0.1 µM in experiment [1]; < 1 µM in experiment [2] (setting [6]); < 0.1 µM in experiment [3]; < 1 µM in experiment [4]; < 0.1 µM in experiment [5].

`CN1CCN(C2CN(c3ccc4ncc(-c5ccc6oc(N)nc6c5)cc4n3)C2)CC1` [Compound 84]: the IC50 in experiment [2] (setting [6]), in experiment [3] and in experiment [4] was > 10 µM throughout.

For `CC(C)N1CCN(C2CN(c3cnc4ccc(-c5ccc6nc(N)[nH]c6c5)nc4c3)C2)CC1` [Compound 85], the IC50 in experiment [1] was < 0.1 µM; in experiment [2] (setting [6]), > 10 µM; in experiment [3], > 10 µM; in experiment [4], > 10 µM.

With `C[C@@H]1CN(C2CN(c3cnc4ccc(-c5ccc6nc(N)[nH]c6c5)nc4c3)C2)CCN1C` [Compound 86], the IC50 in experiment [1] is < 0.1 µM; in experiment [2] (setting [6]) it was > 10 µM; in experiment [3], > 10 µM; in experiment [4] it was > 10 µM.

As to `CCN1CCN(C2CN(c3cnc4ccc(-c5ccc6nc(N)[nH]c6c5)nc4c3)C2)CC1` [Compound 87], the IC50 in experiment [1] is < 0.1 µM; in experiment [2] (setting [6]) it was > 10 µM; in experiment [3], > 10 µM; in experiment [4] it was > 10 µM.

For the molecule `CN1CCN(C2CN(c3cnc4ccc(-c5ccc6nc(N)[nH]c6c5)nc4c3)C2)CC1` [Compound 88], the half-inhibitory concentration (IC50) in experiment [1] was < 0.1 µM; in experiment [2] (setting [6]), > 10 µM; in experiment [3], > 10 µM; in experiment [4], > 10 µM.

In the case of `C[C@H]1CN(C2CN(c3cnc4ccc(-c5ccc6nc(N)[nH]c6c5)nc4c3)C2)CCN1C` [Compound 89], the IC50 in experiment [1] is < 0.1 µM; in experiment [2] (setting [6]), > 10 µM; in experiment [3], > 10 µM; in experiment [4], > 10 µM.

The values are drawn from US20140323721A1, “HETEROCYCLIC COMPOUNDS AND USES THEREOF” (INTELLIKINE, LLC, priority 2011, published 2014).
